Entries after “also recorded” stand apart in the source; their conditions may differ. Like-named read-outs stand apart in the source and are kept apart here.
Key:
[1] = test system: DaoY; assay: Cell viability assay (CellTiter-Blue, 72 hr); type: cell-based, Human
Protocol: (§1) Cancer cell lines were seeded in 96 well tissue culture plate at a low density (10,000 cells per well) and treated with varying concentrations of Eggmanone. After 72 hr incubation, CellTiter-Blue Cell Viability Assay (Promega, Madison, Wis.) was then performed according to manufacturer's protocol. Absorbance was then measured in a Modulus Microplate reader (Promega, Madison, Wis.) at 590 nm and compared to cells treated with DMSO.
as §1, with “density” for “density (10,000 cells per well)”, “compounds identified in Table 7.” for “Eggmanone.”

[2] = test system: RWGT2; assay: Cell viability assay (CellTiter-Blue, 72 hr); type: cell-based, Human
Protocol: as §1
as §1, with “density” for “density (10,000 cells per well)”, “compounds identified in Table 7.” for “Eggmanone.”

[3] = test system: RKO; assay: Cell viability assay (CellTiter-Blue, 72 hr); type: cell-based, Human; settings: for EC50: RKO, human cancer cells, read-out: CELL KILLING EC50 (μM) Colon RKO
Protocol: as §1
as §1, with “density” for “density (10,000 cells per well)”, “compounds identified in Table 7.” for “Eggmanone.”

[4] = test system: MDA-MB- 231; assay: Cell viability assay (CellTiter-Blue, 72 hr); type: cell-based, Human
Protocol: as §1
as §1, with “density” for “density (10,000 cells per well)”, “compounds identified in Table 7.” for “Eggmanone.”

[5] = test system: HCT116; assay: Cell viability assay (CellTiter-Blue, 72 hr); type: cell-based, Human
Protocol: as §1
as §1, with “density” for “density (10,000 cells per well)”, “compounds identified in Table 7.” for “Eggmanone.”

[6] = test system: B16F11; assay: Cell viability assay (CellTiter-Blue, 72 hr); type: cell-based, Mouse
Protocol: as §1
as §1, with “density” for “density (10,000 cells per well)”, “compounds identified in Table 7.” for “Eggmanone.”

[7] = test system: Gli1 mRNA; assay: Hh % Inh.: SAG-induced Gli1 expression in C3H10T½ cells (qPCR); type: cell-based; settings: Mus musculus, C3H 10T1/2, SAG-induced (100 nM), 24 hours; for inhibition at 1 µM: 1 pM [sic], read-out: C3H10T1/2 qPCR, Gh1 mRNA % Inh., 1 pM; for inhibition at 10 µM: 10 pM [sic], read-out: C3H10T1/2 qPCR, Gh1 mRNA % Inh., 10 pM; for EC50: read-out: C3H10T1/2 qPCR, Gh1 mRNA EC50
Protocol: Compounds are dosed from 10 mM DMSO stock solutions, and mRNA is isolated after 24 hours of compound treatment. mRNA is reverse transcribed to produce cDNA which is quantified by quantitative polymerase chain reaction (qPCR) in triplicate and levels are normalized to GAPDH levels. Data is presented as percent inhibition compared to positive control (SAG).

[8] = test system: Hedgehog signaling (TM3-Gli-Luc); assay: TM3-Gli-Luc luciferase reporter assay stimulated with 20 nM SAG; type: cell-based
Method in brief: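 TM3-Gli-Luc cells on 0.1% gelatin in DMEM/F12 with 2.5% FBS, treated 48 h with compound plus 20 nM SAG. Steady-Glo luminescence normalized to CellTiter-Glo viability, DMSO-only (no SAG) background subtracted, percent of SAG control. EC50 averaged from ≥2 independent days ±SEM.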

[9] = Daoy, human cancer cells, read-out: CELL KILLING EC50 (μM) Medulloblastoma DaoY
[10] = human cancer cells, read-out: CELL KILLING EC50 (μM) Lung Squam, NSCLC RWGT2
[11] = MDA-MB-231, human cancer cells, read-out: CELL KILLING EC50 (μM) Breast MDA-231
[12] = HCT-116, human cancer cells, read-out: CELL KILLING EC50 (μM) Colon HTC116
[13] = Mus musculus, B16-F10, Table 10, read-out: CELL KILLING EC50 (μM) Melanoma B16F10
[14] = Table 9A, read-out: TM3 G8 Luciferase EC 50
[15] = 20 nM SAG, mean ± standard error of the mean, read-out: TM3-Gli-Luc EC50
[16] = TM3-Gli-Luc reporter line stimulated with 20 nM SAG, mean ± SEM, Table 14, read-out: TM3-Gli-Luc EC50

Structure (SMILES)	EC50 [1, 9] [µM]	EC50 [2, 10] [µM]	EC50 [3] [µM]	EC50 [4, 11] [µM]	EC50 [5, 12] [µM]	EC50 [6, 13] [µM]	inhibition at 1 µM [7] [%]	inhibition at 10 µM [7] [%]	EC50 [7] [nM]	EC50 [8, 14] [µM]	also measured
C=C(C)Cn1c(SCC(=O)c2cccs2)nc2sc3c(c2c1=O)CCCC3 [EGM, Eggmanone]	31.5	6.87	54.3	2.05	11.4	2.22	53.3	92.7	1410	1.35	–
C=C(C)Cn1c(SCC(=O)c2cccs2)nc2sc3c(c2c1=O)CCCC3 [Eggmanone, 3-(2-methylallyl)-2-((2-oxo-2-(thiophen-2-yl)ethyl)thio)-5,6,7,8-tetrahydrobenzo[4,5]thieno[2,3-d]pyrimidine-4(3H)-one]	–	–	–	–	–	–	–	–	–	–	Viability of Daoy medulloblastoma cells [1]: potently and preferentially reduced the viability; also recorded: significantly inhibited; Viability of Daoy medulloblastoma cells ([1]; listed as eggmanone): potently and preferentially reduced the viability; EC50 ([2]; 72 h, read-out: EC50 (50% reduction of viable cell count at 72 hours), RWGT2, Human Lung Carcinoma): 6.87 µM; Effect on RKO colon cancer cell line [3]: significantly inhibited; EC50 ([4]; 72 h, read-out: EC50 (50% reduction of viable cell count at 72 hours), MDA-MB- 231, Human Breast Adenocarcinoma): 2.05 µM; Effect on HCT116 colon cancer cell line [5]: significantly inhibited; EC50 ([6]; 72 h, read-out: EC50 (50% reduction of viable cell count at 72 hours), B16F11, Mouse Melanoma): 2.05 µM
CCCn1c(SCC(=O)c2cccs2)nc2sc3c(c2c1=O)CCCC3 [Formula 9e]	–	–	–	–	–	–	–	–	–	–	EC50 [8, 15]: 1.3 ± 0.18 µM; EC50 [8, 16]: 1.3 ± 0.18 µM
C=C(C)Cn1c(SCC(=O)c2ccccc2)nc2sc3c(c2c1=O)CCCC3 [Formula 9g]	–	–	–	–	–	–	–	–	–	–	Hh inhibitory activity / potency in words ([8]; 20 nM SAG): modest potency; EC50 [8, 15]: 5.7 ± 2.1 µM; EC50 [8, 16]: 5.7 ± 2.1 µM
O=C(CSc1nc2sc3c(c2c(=O)n1C1CC1)CCCC3)c1cccs1 [JEH-3-039-2]	–	–	–	–	–	–	49.3	89.1	593	0.476	–
C=CCn1c(SCC(=O)c2cccs2)nc2sc3c(c2c1=O)CCCC3 [JEH-3-039-3]	34	5.07	306	1.74	54.5	3.69	64.9	66.5	–	3.02	–
C=C(C)Cn1c(SCC(=O)c2ccccc2)nc2sc3c(c2c1=O)CCCC3 [JEH-3-045-1]	–	–	–	–	–	–	58.1	95.4	809	8.49	–
C=C(C)Cn1c(SCC(=O)c2ccncc2)nc2sc3c(c2c1=O)CCCC3 [JEH-3-048-1]	0.0574	40.2	52.9	6.82	87.9	14.2	–	28.7	–	19	EC50 ([1]; 72 h, read-out: EC50 (50% reduction of viable cell count at 72 hours), DaoY, Human Cerebellar Medulloblastoma): 0.057 µM
C=C(C)Cn1c(SCC(=O)c2ccccn2)nc2sc3c(c2c1=O)CCCC3 [JEH-3-063]	15.3	23.7	7.18	4.46	3.82	2.29	–	35.4	–	39.8	EC50 ([5]; HCT-116, 72 h, read-out: EC50 (50% reduction of viable cell count at 72 hours), HCT116, Human Colorectal Carcinoma): 3.82 µM
C=C(C)Cn1c(SCC(=O)c2nccs2)nc2sc3c(c2c1=O)CCCC3 [JEH-3-069-1]	26.9	27.6	38.3	14	22.9	16.1	–	42.8	–	32.5	–

From US10329304B2, “Compounds and methods for inhibition of hedgehog signaling and phosphodiesterase” (Vanderbilt University, priority 2014, dated 2019)
